Key:
Adenosine receptor A3 = biological target: T1, Adenosine receptor A3 (Homo sapiens, UniProt P0DMS8); assay: Agonist activity at human adenosine A3 receptor expressed in CHO cells by GTPPgammaS binding assay; type: cell-based
T1 sequence (P0DMS8 whole entry): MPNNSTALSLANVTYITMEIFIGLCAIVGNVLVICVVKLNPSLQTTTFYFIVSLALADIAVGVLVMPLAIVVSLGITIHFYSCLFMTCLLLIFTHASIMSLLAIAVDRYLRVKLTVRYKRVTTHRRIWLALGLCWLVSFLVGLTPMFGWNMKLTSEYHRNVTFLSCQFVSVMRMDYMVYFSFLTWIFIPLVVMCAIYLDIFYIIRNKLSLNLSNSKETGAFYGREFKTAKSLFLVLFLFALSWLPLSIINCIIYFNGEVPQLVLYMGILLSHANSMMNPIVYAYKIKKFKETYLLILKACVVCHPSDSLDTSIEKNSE

Adenosine receptor A2a [1] = biological target: T2, Adenosine receptor A2a (Homo sapiens, UniProt P29274)
T2 sequence (P29274 whole entry): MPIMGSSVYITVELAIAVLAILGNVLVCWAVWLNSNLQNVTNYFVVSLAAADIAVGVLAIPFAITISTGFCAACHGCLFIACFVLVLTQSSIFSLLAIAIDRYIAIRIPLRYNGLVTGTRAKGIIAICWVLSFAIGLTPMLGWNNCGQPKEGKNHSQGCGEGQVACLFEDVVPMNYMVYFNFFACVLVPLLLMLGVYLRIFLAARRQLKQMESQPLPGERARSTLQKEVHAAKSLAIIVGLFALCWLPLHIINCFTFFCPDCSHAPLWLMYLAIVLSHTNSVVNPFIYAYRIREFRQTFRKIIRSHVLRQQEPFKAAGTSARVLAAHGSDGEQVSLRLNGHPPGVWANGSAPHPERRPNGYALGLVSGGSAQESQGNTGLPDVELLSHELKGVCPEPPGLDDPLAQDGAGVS
Description: Agonist activity at adenosine A2A receptor in human neutrophils assessed as inhibition of fMLP-induced reactive oxygen species release by chemiluminescence assay

Adenosine receptor A1 = biological target: T3, Adenosine receptor A1 (Homo sapiens, UniProt P30542); assay: Agonist activity at human adenosine A1 receptor expressed in CHO cells by GTPPgammaS binding assay; type: cell-based
T3 sequence (P30542 whole entry): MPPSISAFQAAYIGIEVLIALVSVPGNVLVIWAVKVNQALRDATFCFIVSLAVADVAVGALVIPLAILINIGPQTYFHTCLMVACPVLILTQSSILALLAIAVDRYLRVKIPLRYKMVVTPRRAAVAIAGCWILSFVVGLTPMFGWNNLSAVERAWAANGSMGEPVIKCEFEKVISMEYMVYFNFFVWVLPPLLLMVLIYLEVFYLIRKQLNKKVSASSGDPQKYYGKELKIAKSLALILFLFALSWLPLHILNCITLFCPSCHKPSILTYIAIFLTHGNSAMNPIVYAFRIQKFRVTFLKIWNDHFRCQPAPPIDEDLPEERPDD

[2] = biological target: T4, Adenosine receptor A3 (Homo sapiens) (UniProt P0DMS8); assay: Antagonist activity at human adenosine A3 receptor expressed in CHO cells assessed as I-AB-MECA-induced GTPPgammaS binding response; type: functional, cell-based; design: concentration or dose not given beside the values
T4 sequence (whole entry): T1 sequence (P0DMS8 whole entry)

Adenosine receptor A2a [3] = biological target: T2, Adenosine receptor A2a; assay: biochemical
Adenosine receptor A2b = biological target: T5, Adenosine receptor A2b (Homo sapiens, UniProt P29275)
T5 sequence (P29275 whole entry): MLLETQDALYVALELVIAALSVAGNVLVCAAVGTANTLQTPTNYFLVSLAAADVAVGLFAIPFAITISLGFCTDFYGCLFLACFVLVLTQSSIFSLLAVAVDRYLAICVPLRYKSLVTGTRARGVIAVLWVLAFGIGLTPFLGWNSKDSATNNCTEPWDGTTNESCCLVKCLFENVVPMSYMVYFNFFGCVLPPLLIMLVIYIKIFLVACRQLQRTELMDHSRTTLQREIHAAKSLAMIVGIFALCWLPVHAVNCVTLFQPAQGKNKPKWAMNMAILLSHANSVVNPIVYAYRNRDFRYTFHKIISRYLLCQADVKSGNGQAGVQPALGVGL
Description: Agonist activity at human adenosine A2B receptor expressed in CHO cells assessed as effect on cAMP production by luciferase reporter gene assay

PBMC [4] = assay: Antiinflammatory activity in rat PBMC assessed as inhibition of LPS-induced TNFalpha production after 20 hrs by ELISA
PBMC [5] = assay: Antiinflammatory activity in human PBMC assessed as inhibition of LPS-induced TNFalpha production after 20 hrs by ELISA; type: functional, cell-based
[6] = biological target: T4, Adenosine receptor A3 (Homo sapiens); assay: Partial agonist activity at human adenosine A3 receptor expressed in CHO cells assessed as I-AB-MECA-induced GTPPgammaS binding response; type: cell-based

Row | SMILES | EC50 (Adenosine receptor A3) [nM] | IC50 (Adenosine receptor A2a [1]) [nM] | EC50 (Adenosine receptor A1) [nM] | Activity [2] [%] | Ki (Adenosine receptor A2a [3]) [nM] | EC50 (Adenosine receptor A2b) [nM] | Activity [6] [%] | IC50 (PBMC [4]) [nM] | IC50 (PBMC [5]) [nM]
1 | Cc1cnn([C@H]2C[C@@H](n3cnc4c(N)nc(N[C@H](CO)Cc5ccccc5)nc43)[C@H](O)[C@@H]2O)c1 | 449 | 56 | > 10000 | > 50 | 229 | > 10000 |  |  | 
2 | Nc1nc(N[C@H](CO)Cc2ccccc2)nc2c1ncn2[C@@H]1C[C@H](n2cc(-c3ccccc3)cn2)[C@@H](O)[C@H]1O |  |  |  |  | > 10000 |  |  |  | 
3 | CCC(=O)N[C@H]1C[C@@H](n2cnc3c(NC(CC)CC)nc(NCCc4cn(CC)cn4)nc32)[C@H](O)[C@@H]1O | 1640 | 2.7 | > 10000 |  | 5.4 | > 10000 |  | 255 | 4.7
4 | CC(C)n1cnc(CCNc2nc(NCC(c3ccccc3)c3ccccc3)c3ncn([C@@H]4C[C@H](NC(=O)C(C)(C)C)[C@@H](O)[C@H]4O)c3n2)c1 |  | 542 |  |  | 382 |  |  |  | 
5 | Nc1nc(N[C@H](CO)Cc2ccccc2)nc2c1ncn2[C@@H]1C[C@H](n2ccccc2=O)[C@@H](O)[C@H]1O |  |  |  |  | 5490 |  |  |  | 
6 | CCn1nnc([C@H]2O[C@@H](n3cnc4c(N)nc(N[C@H](CO)Cc5ccccc5)nc43)[C@H](O)[C@@H]2O)n1 [GW-328267] |  | 0.4 | 882 | > 50 |  |  |  | 2.9 | 1.3
7 | CCNC(=O)[C@H]1O[C@@H](n2cnc3c(N)nc(NCCc4ccc(CCC(=O)O)cc4)nc32)[C@H](O)[C@@H]1O [CGS-21680] |  |  |  |  |  |  |  | 83 | 58
8 | CCCCC#Cc1nc(N)c2ncn([C@@H]3C[C@H](NC(=O)CC)[C@@H](O)[C@H]3O)c2n1 | 105 | 12 | > 10000 |  | 18 | > 10000 |  |  | 
9 | CC(C)n1cnc(CCNc2nc(NCC(c3ccccc3)c3ccccc3)c3ncn([C@@H]4C[C@H](NC(=O)CCc5ccccc5)[C@@H](O)[C@H]4O)c3n2)c1 |  |  |  |  | 5470 |  |  |  | 
10 | Nc1nc(N[C@H](CO)Cc2ccccc2)nc2c1ncn2[C@@H]1C[C@H](n2ncc3ccccc32)[C@@H](O)[C@H]1O |  |  |  |  | 5410 |  |  |  | 
11 | CCNC(=O)[C@H]1O[C@@H](n2cnc3c(N)ncnc32)[C@H](O)[C@@H]1O [NECA] |  |  |  |  |  |  |  | 187 | 40
12 | CC(C)n1cnc(CCNc2nc(NCC(c3ccccc3)c3ccccc3)c3ncn([C@@H]4C[C@H](NC(=O)Cc5ccccc5)[C@@H](O)[C@H]4O)c3n2)c1 |  |  |  |  | 1670 |  |  |  | 
13 | CCc1cnn([C@H]2C[C@@H](n3cnc4c(N)nc(N[C@H](CO)Cc5ccccc5)nc43)[C@H](O)[C@@H]2O)c1 | 776 | 62 | > 10000 | > 50 | 182 | > 10000 |  |  | 
14 | Nc1nc(N[C@H](CO)Cc2ccccc2)nc2c1ncn2[C@@H]1C[C@H](n2cccn2)[C@@H](O)[C@H]1O |  |  |  |  | 702 |  |  |  | 
15 | CCc1cnn([C@H]2C[C@@H](n3cnc4c(NCC(c5ccccc5)c5ccccc5)nc(NCCc5cn(CC)cn5)nc43)[C@H](O)[C@@H]2O)c1 |  |  |  |  | 146 |  |  |  | 

More lines, in order of falling Ki (Adenosine receptor A2a [3]), values ahead:

Row | EC50 (Adenosine receptor A3) [nM] | IC50 (Adenosine receptor A2a [1]) [nM] | EC50 (Adenosine receptor A1) [nM] | Activity [2] [%] | Ki (Adenosine receptor A2a [3]) [nM] | EC50 (Adenosine receptor A2b) [nM] | Activity [6] [%] | SMILES | IC50 (PBMC [4]) [nM] | IC50 (PBMC [5]) [nM]
16 |  |  |  |  | 97 |  |  | CCC(=O)N[C@H]1C[C@@H](n2cnc3c(NCC(c4ccccc4)c4ccccc4)nc(NCCc4cn(CC(=O)O)cn4)nc32)[C@H](O)[C@@H]1O |  | 
17 |  | 160 |  |  | 39 |  |  | CCCC(=O)N[C@H]1C[C@@H](n2cnc3c(NCC(c4ccccc4)c4ccccc4)nc(NCCc4cn(C(C)C)cn4)nc32)[C@H](O)[C@@H]1O |  | 
18 |  | 67 |  |  | 27 |  |  | CC(C)C(=O)N[C@H]1C[C@@H](n2cnc3c(NCC(c4ccccc4)c4ccccc4)nc(NCCc4cn(C(C)C)cn4)nc32)[C@H](O)[C@@H]1O |  | 
19 | 357 | 60 | > 10000 | > 50 | 16 |  |  | CC(C)n1cnc(CCNc2nc(NCC(c3ccccc3)c3ccccc3)c3ncn([C@@H]4C[C@H](NC(=O)C5CC5)[C@@H](O)[C@H]4O)c3n2)c1 |  | 
20 | 2520 | 8.3 | > 10000 |  | 8 |  |  | CCC(=O)N[C@H]1C[C@@H](n2cnc3c(NC(CC)CC)nc(NCCc4cn(C(C)C)cn4)nc32)[C@H](O)[C@@H]1O | 458 | 5.9
21 | 480 | 40 | > 10000 |  | 7.9 |  | 48 | CC(C)n1cnc(CCNc2nc(NCC(c3ccccc3)c3ccccc3)c3ncn([C@@H]4C[C@H](NC(=O)C5CCC5)[C@@H](O)[C@H]4O)c3n2)c1 |  | 
22 | 789 | 5.3 | 4100 | > 50 | 5.4 | > 10000 |  | CCC(CC)CNc1nc(NCCc2cn(CC)cn2)nc2c1ncn2[C@@H]1C[C@H](n2cc(CO)cn2)[C@@H](O)[C@H]1O | 3590 | 21
23 | 44 | 5 |  |  | 5.2 |  |  | CCC(=O)N[C@H]1C[C@@H](n2cnc3c(NCC(c4ccccc4)c4ccccc4)nc(NCCc4cn(CC)cn4)nc32)[C@H](O)[C@@H]1O |  | 
24 | 139 | 5.9 | > 10000 |  | 5.2 | > 10000 |  | CCC(=O)N[C@H]1C[C@@H](n2cnc3c(NCC(c4ccccc4)c4ccccc4)nc(NCCc4c[nH]cn4)nc32)[C@H](O)[C@@H]1O |  | 
25 | 42 | 4.7 | > 10000 |  | 4.6 |  |  | CCC(=O)N[C@H]1C[C@@H](n2cnc3c(NCC(c4ccccc4)c4ccccc4)nc(NCCc4cn(C)cn4)nc32)[C@H](O)[C@@H]1O |  | 
